Article PMC7395068, “The evolution of strategies to minimise the risk of human drug-induced liver injury (DILI) in drug discovery and development” (Archives of Toxicology, 2020)
Like-named read-outs stand apart in the source and are kept apart here.

Columns and labels:
PHH [1] = details: cited from earlier work
[2] = system: THLE or HepG2 cells, isolated mitochondria, BSEP; details: cited from earlier work
[3] = system: isolated mouse liver mitochondria; details: In vitro Assay; ref Porceddu 2012; cited from earlier work
[4] = read-out: Human plasma Cmax; total plasma Cmax.tot, median of 9 literature references; cited from earlier work
HepG2 cells [5] = details: cited from earlier work
[6] = plasma free fraction; cited from earlier work
[7] = Plasma free fraction (fu) and unbound Cmax (Cmax,u); assay type: in vitro ADME, human; details: unbound plasma Cmax
hLiMTs [8] = details: cited from earlier work
[9] = system: HepG2 C3A spheroid, BSEP, Glu/Gal in HepG2 cells, bioactivation; details: cited from earlier work
hLiMTs [10] = experiment: Combined HCI (HCS) and cellular ATP 3D assay in hLiMTs; details: for AC50 / minimal effective concentration: Homo sapiens
HepG2 = system: HepG2; set-up: method as in Albrecht 2019; details: In vitro Assay; ref Albrecht 2019; cited from earlier work
[11] = cited from earlier work
PHH [12] = details: In vitro Assay; ref Albrecht 2019; cited from earlier work
HepaRG spheroids = experiment: Combined HCI (HCS) and cellular ATP 3D assay in HepaRG spheroids
HepG2 cells [13] = details: cited from earlier work; remark: listed apart in the source
HepG2 cells [14] = details: Structural based (HCI), HepG2; ref O'Brien et al. 2006; cited from earlier work
[15] = In vitro Assay, ref Proctor 2017
[16] = Modeled in vitro assays (cytotoxicity, mitochondrial dysfunction, BSEP), ref Aleo et al. 2019
[17] = Microtissue model structural based (HCI), combined HCS and ATP, MEC < 25 × Cmax.tot cut-off
[18] = In vitro Assay, ref Persson 2013

Human plasma Cmax,u [7]: 538.224 µM | hLiMTs <25x Avg Cmax ATP (hLiMTs [10]; hLiMTs, ATP endpoint, cut-off <25x Avg Cmax): +ve | hLiMTs <100x Avg Cmaxu ATP (hLiMTs [10]; hLiMTs, ATP endpoint, cut-off <100x Avg Cmaxu): +ve (<100x Avg Cmaxu) | hLiMTs <25x Avg Cmax HCS (hLiMTs [10]; hLiMTs, HCS endpoints, cut-off <25x Avg Cmax): +ve | hLiMTs <100x Avg Cmaxu HCS (hLiMTs [10]; hLiMTs, HCS endpoints, cut-off <100x Avg Cmaxu): +ve (<100x Avg Cmaxu) | hLiMTs <25x Avg Cmax All (hLiMTs [10]; hLiMTs, all endpoints (ATP and HCS), cut-off <25x Avg Cmax): +ve | hLiMTs Cmax max All (hLiMTs [10]; hLiMTs, all endpoints, Cmax max used): +ve | hLiMTs Cmax min All (hLiMTs [10]; hLiMTs, all endpoints, Cmax min used): +ve | hLiMTs <10 uM All (hLiMTs [10]; hLiMTs, all endpoints, cut-off <10 uM): -ve | hLiMTs <100x Avg Cmaxu All (hLiMTs [10]; hLiMTs, all endpoints, cut-off <100x Avg Cmaxu): +ve (<100x Avg Cmaxu) | HepaRG <25x Avg Cmax ATP (HepaRG spheroids; HepaRG, ATP endpoint, cut-off <25x Avg Cmax): +ve | HepaRG <100x Avg Cmaxu ATP (HepaRG spheroids; HepaRG, ATP endpoint, cut-off <100x Avg Cmaxu): +ve (<100x Avg Cmaxu) | HepaRG <25x Avg Cmax HCS (HepaRG spheroids; HepaRG, HCS endpoints, cut-off <25x Avg Cmax): +ve | HepaRG <100x Avg Cmaxu HCS (HepaRG spheroids; HepaRG, HCS endpoints, cut-off <100x Avg Cmaxu): +ve (<100x Avg Cmaxu) | HepaRG <25x Avg Cmax All (HepaRG spheroids; HepaRG, all endpoints (ATP and HCS), cut-off <25x Avg Cmax): +ve | HepaRG Cmax max All (HepaRG spheroids; HepaRG, all endpoints, Cmax max used): +ve | HepaRG Cmax min All (HepaRG spheroids; HepaRG, all endpoints, Cmax min used): +ve | HepaRG <10 uM All (HepaRG spheroids; HepaRG, all endpoints, cut-off <10 uM): -ve | HepaRG <100x Avg Cmaxu All (HepaRG spheroids; HepaRG, all endpoints, cut-off <100x Avg Cmaxu): +ve (<100x Avg Cmaxu)
SMILES: CC(=O)Oc1ccccc1C(=O)O [acetylsalicylic acid]
PHH/100xCmax, Proctor (2017) (PHH [1]; 2D PHH, ATP, IC50 < 100 × Cmax.tot, ref Proctor et al. 2017): -VE | PHH/100uM, Proctor (2017) (PHH [1]; 2D PHH, ATP, IC50 threshold 100 µM, ref Proctor et al. 2017): -VE | PHH ATP <100uM (PHH [1]; [15]): -VE | Partition Hybrid HRM Score ([2]; In vitro Assay, ref Aleo 2019): -VE | Ro2 Hybrid HRM Score ([2]; In vitro Assay, ref Aleo 2019): -VE | Partition Hybrid HRM Score ≥4, Aleo (2019) [2, 16]: -VE | Partition Hybrid HRM Score ≥8, Aleo (2019) [2, 16]: -VE | Rule of Two hybrid HRM Score ≥3, Aleo (2019) [2, 16]: -VE | Rule of Two hybrid HRM Score ≥8, Aleo (2019) [2, 16]: -VE | in vitro data EC2<=1x Cmax [3]: +VE | in vitro data EC20<=2uM [3]: -VE | Cmax [4]: 1380 µM | Structural based (HCI) (HepG2 cells [5]; In vitro Assay, ref Tolosa 2012): +VE | DILI in vitro assay prediction, Tolosa (2012) (HepG2 cells [5]; Structural based (HCI), HepG2, ref Tolosa et al. 2012): +VE | fu [6]: 0.390 | hLiMTs ATP <100uM (hLiMTs [8]; [15]): -VE | hLiMTs/100xCmax, Proctor (2017) (hLiMTs [8]; hLiMTs, ATP, IC50 < 100 × Cmax.tot, ref Proctor et al. 2017): -VE | hLiMTs/100uM, Proctor (2017) (hLiMTs [8]; hLiMTs, ATP, IC50 threshold 100 µM, ref Proctor et al. 2017): -VE | Bayesian Machine Learning DILI prediction, Williams (2019) ([9]; Bayesian modeling, ref Williams et al. 2019): -VE | Bayesian Machine Learning ([9]; In vitro Assay, ref Williams 2019): -VE | AC50 (hLiMTs [10]; read-out: ATP endpoint AC50): 3.25 mM | minimal effective concentration (hLiMTs [10]; read-out: ATP endpoint MEC): 2270 µM | AC50 (hLiMTs [10]; read-out: HCS endpoint AC50): 4.69 mM | minimal effective concentration (hLiMTs [10]; read-out: HCS endpoint MEC): 1930 µM | DILI prediction hLiMTs (HCS-MEC) (hLiMTs [10]; [17]): +VE (MEC < 25 × Cmax.tot cut-off) | Cytotoxicity HepG2 48 hrs (HepG2): +VE | Assigned DILI category ([11]; Chen et al. 2016 or literature alignment, ref Chen et al. 2016): 3 | In vivo DILI ([11]; […]): -VE | In vivo DILI ([11]; ref Albrecht 2019): +VE | In vivo DILI ([11]; ref Aleo 2019): +VE | In vivo DILI ([11]; ref Persson 2013): +VE | In vivo DILI ([11]; ref Porceddu 2012): +VE | In vivo DILI ([11]; ref Proctor 2017): +VE | In vivo DILI ([11]; ref Tolosa 2012): +VE | In vivo DILI ([11]; ref Williams 2019): +VE | Cytotoxicity PHH 48 hrs (PHH [12]): +VE | AC50 (HepaRG spheroids; Homo sapiens, HepaRG, read-out: ATP endpoint AC50): 1.63 mM | minimal effective concentration (HepaRG spheroids; Homo sapiens, HepaRG, read-out: ATP endpoint MEC): 659 µM | minimal effective concentration (HepaRG spheroids; Homo sapiens, HepaRG, read-out: HCS endpoint MEC): 1340 µM | DILI prediction HepaRG spheroids (HCS-MEC) (HepaRG spheroids; [17]): +VE (MEC < 25 × Cmax.tot cut-off) | Cluser analysis (HepG2 cells [13]; [18]): -VE | Structural based (HCI) (HepG2 cells [13]; [18]): -VE | DILI in vitro assay prediction, Persson (2013) (HepG2 cells [13]; Structural based (HCI), HepG2, ref Persson et al. 2013): -VE | DILI in vitro assay prediction, O'Brien (2006) (HepG2 cells [14]): +VE (lowest HCI endpoint IC50 (or in the absence of dose–response < 100 µM) < 30 × total human plasma exposure levels (Cmax.tot))
